Laboratory results reported in patent US11814445B2, “Cyclic polypeptides for PCSK9 inhibition” (Ra Pharmaceuticals, Inc., priority 2018, dated 2023).
Numbered stars: 1 amine (or outer) side, 2 acyl side, 3 side chain; on linkers, the order of the positions; unused ones are H or OH. Bridge positions count the residues as written; N and C are the ends. Square brackets hold non-standard residues; d marks the D form. Peptide text beside a SMILES is read from it. ξ: configuration not given here. Phe(4-CF3) = N[C@@H](Cc1ccc(C(F)(F)F)cc1)C(=O)O; Trp(5-F) = N[C@@H](Cc1c[nH]c2ccc(F)cc12)C(=O)O; Pro(trans-4-F) = O=C(O)[C@@H]1C[C@@H](F)CN1; Phe(3-Cl) = N[C@@H](Cc1cccc(Cl)c1)C(=O)O; Phe(4-Cl) = N[C@@H](Cc1ccc(Cl)cc1)C(=O)O; Pro(cis-4-F) = O=C(O)[C@@H]1C[C@H](F)CN1; αMeW = C[C@](N)(Cc1c[nH]c2ccccc12)C(=O)O; X1 = O=C(CCSCc1cccc(CSCCN[*:1])c1)[*:2]; mXylylene = c1cc(C[*:1])cc(C[*:2])c1; NBzl(4-I)Gly = O=C(O)CNCc1ccc(I)cc1; NMeY = CN[C@@H](Cc1ccc(O)cc1)C(=O)O; Igl = N[C@H](C(=O)O)C1Cc2ccccc2C1; NMeF = CN[C@@H](Cc1ccccc1)C(=O)O; 2Pal = N[C@@H](Cc1ccccn1)C(=O)O; 3Pal = N[C@@H](Cc1cccnc1)C(=O)O; 4Pal = N[C@@H](Cc1ccncc1)C(=O)O; αMeP = C[C@@]1(C(=O)O)CCCN1; ΔPro = O=C(O)[C@@H]1C=CCN1; Pip = O=C(O)[C@@H]1CCCCN1; Ac5c = NC1(C(=O)O)CCCC1; Thp = NC1(C(=O)O)CCOCC1; ξP = O=C(O)C1CCCN1; Mpa = O=C(O)CCS

biological target: human PCSK9 / human LDLR EGFa domain (Homo sapiens, UniProt Q8NBP7); experiment: TR-FRET assay of inhibition of the PCSK9-LDLR protein-protein interaction; assay type: binding; details: 20 nM human PCSK9, 20 nM human LDLR EGFa domain, 2 hours room temperature
Sequence (Q8NBP7 153-692): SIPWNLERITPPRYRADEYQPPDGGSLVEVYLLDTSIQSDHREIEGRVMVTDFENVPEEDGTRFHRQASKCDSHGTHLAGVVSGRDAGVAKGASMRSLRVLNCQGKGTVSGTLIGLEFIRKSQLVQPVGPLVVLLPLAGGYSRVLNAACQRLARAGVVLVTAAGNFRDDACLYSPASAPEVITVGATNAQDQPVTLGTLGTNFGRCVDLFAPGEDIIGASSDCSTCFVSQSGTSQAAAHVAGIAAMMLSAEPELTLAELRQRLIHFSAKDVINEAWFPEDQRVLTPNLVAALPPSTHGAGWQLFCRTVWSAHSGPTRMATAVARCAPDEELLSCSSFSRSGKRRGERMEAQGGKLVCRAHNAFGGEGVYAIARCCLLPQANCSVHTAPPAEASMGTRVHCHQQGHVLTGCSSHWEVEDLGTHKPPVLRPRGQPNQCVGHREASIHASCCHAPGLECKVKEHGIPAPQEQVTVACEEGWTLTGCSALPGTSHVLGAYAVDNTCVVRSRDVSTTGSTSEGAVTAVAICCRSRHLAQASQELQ
Procedure: A time-resolved fluorescence resonance energy (TR-FRET) assay was used to measure inhibition of the PCSK9-LDLR protein-protein interaction. Briefly, 20 nM avitag-biotinylated human PCSK9 was incubated with 20 nM his-tagged human LDLR EGFa domain in the presence of 5 nM LANCE Ulight Streptavidin (Perkin Elmer) and 5 nM europium-Anti-6×His (Perkin Elmer) for 2 hours covered at room temperature in buffer containing 50 mM HEPES, 150 mM NaCl, 5 mM CaCl2), 0.01% BSA and 0.01% Surfactant P20. Compounds were tested in dose-response and concentrations giving half-maximal inhibition calculated using a 4-parameter fit equation.

Compound | IC50
C[C@@H]1NC(=O)[C@@H]2C[C@H](F)CN2C(=O)[C@H](Cc2c[nH]c3ccc(F)cc23)NC(=O)[C@H](Cc2c[nH]c3ccc(F)cc23)NC(=O)CNC(=O)[C@H](CCCCN)NC(=O)CCSCc2cccc(c2)CSC[C@@H](C(N)=O)NC(=O)[C@@H]2CCCN2C(=O)[C@H](Cc2ccc(O)cc2)NC1=O [Compound 002] ([Mpa]KG[Trp(5-F)][Trp(5-F)][Pro(cis-4-F)]AYPC-NH2; linker 1-10 via mXylylene) | 1 to 100 nM
C[C@@H]1NC(=O)[C@@H]2CCCN2C(=O)[C@H](Cc2c[nH]c3ccc(F)cc23)NC(=O)[C@H](Cc2c[nH]c3ccc(F)cc23)NC(=O)[C@@H](C)NC(=O)[C@H](CCCCN)NC(=O)CCSCc2cccc(c2)CSCCNC(=O)[C@]2(C)CCCN2C(=O)[C@H](Cc2ccc(O)cc2)NC1=O [Compound 003] (cyclo(AY[αMeP][X1]K[dA][Trp(5-F)][Trp(5-F)]P)) | 1000 to 12100 nM
C[C@@H]1NC(=O)[C@@H]2CCCN2C(=O)[C@H](Cc2ccc(Cl)cc2)NC(=O)[C@H](Cc2c[nH]c3ccc(F)cc23)NC(=O)CNC(=O)[C@H](CCCCN)NC(=O)CCSCc2cccc(c2)CSC[C@@H](C(N)=O)NC(=O)[C@@H]2CCCN2C(=O)[C@H](Cc2ccc(O)cc2)NC1=O [Compound 004] ([Mpa]KG[Trp(5-F)][Phe(4-Cl)]PAYPC-NH2; linker 1-10 via mXylylene) | 1000 to 12100 nM
C[C@@H]1NC(=O)[C@@H]2CCCN2C(=O)[C@H](Cc2cccc(Cl)c2)NC(=O)[C@H](Cc2c[nH]c3ccc(F)cc23)NC(=O)CNC(=O)[C@H](CCCCN)NC(=O)CCSCc2cccc(c2)CSC[C@@H](C(N)=O)NC(=O)[C@@H]2CCCN2C(=O)[C@H](Cc2ccc(O)cc2)NC1=O [Compound 005] ([Mpa]KG[Trp(5-F)][Phe(3-Cl)]PAYPC-NH2; linker 1-10 via mXylylene) | 100 to 1000 nM
C[C@@H]1NC(=O)[C@@H]2CCCN2C(=O)[C@H](Cc2ccc(C(F)(F)F)cc2)NC(=O)[C@H](Cc2c[nH]c3ccc(F)cc23)NC(=O)CNC(=O)[C@H](CCCCN)NC(=O)CCSCc2cccc(c2)CSC[C@@H](C(N)=O)NC(=O)[C@@H]2CCCN2C(=O)[C@H](Cc2ccc(O)cc2)NC1=O [Compound 007] ([Mpa]KG[Trp(5-F)][Phe(4-CF3)]PAYPC-NH2; linker 1-10 via mXylylene) | 1000 to 12100 nM
C[C@@H]1NC(=O)[C@@H]2CCCN2C(=O)[C@H](C2Cc3ccccc3C2)NC(=O)[C@H](Cc2c[nH]c3ccc(F)cc23)NC(=O)CNC(=O)[C@H](CCCCN)NC(=O)CCSCc2cccc(c2)CSC[C@@H](C(N)=O)NC(=O)[C@@H]2CCCN2C(=O)[C@H](Cc2ccc(O)cc2)NC1=O [Compound 008] ([Mpa]KG[Trp(5-F)][Igl]PAYPC-NH2; linker 1-10 via mXylylene) | 100 to 1000 nM
C[C@@H]1NC(=O)[C@@H]2CCCN2C(=O)CN(Cc2ccc(I)cc2)C(=O)[C@H](Cc2c[nH]c3ccc(F)cc23)NC(=O)CNC(=O)[C@H](CCCCN)NC(=O)CCSCc2cccc(c2)CSC[C@@H](C(N)=O)NC(=O)[C@@H]2CCCN2C(=O)[C@H](Cc2ccc(O)cc2)NC1=O [Compound 010] ([Mpa]KG[Trp(5-F)][NBzl(4-I)Gly]PAYPC-NH2; linker 1-10 via mXylylene) | 100 to 1000 nM
COc1ccc(C[C@@H]2NC(=O)[C@H](Cc3c[nH]c4ccc(F)cc34)NC(=O)CNC(=O)[C@H](CCCCN)NC(=O)CCSCc3cccc(c3)CSC[C@@H](C(N)=O)NC(=O)[C@@H]3CCCN3C(=O)[C@H](Cc3ccc(O)cc3)NC(=O)[C@H](C)NC(=O)[C@@H]3CCCN3C2=O)cc1 [Compound 018] ([Mpa]KG[Trp(5-F)]Y(Me)PAYPC-NH2; linker 1-10 via mXylylene) | 100 to 1000 nM
C[C@@H]1NC(=O)[C@@H]2CCCN2C(=O)[C@H](Cc2ccccn2)NC(=O)[C@H](Cc2c[nH]c3ccc(F)cc23)NC(=O)CNC(=O)[C@H](CCCCN)NC(=O)CCSCc2cccc(c2)CSC[C@@H](C(N)=O)NC(=O)[C@@H]2CCCN2C(=O)[C@H](Cc2ccc(O)cc2)NC1=O [Compound 019] ([Mpa]KG[Trp(5-F)][2Pal]PAYPC-NH2; linker 1-10 via mXylylene) | 21000 to 50000 nM
C[C@@H]1NC(=O)[C@@H]2CCCN2C(=O)[C@H](Cc2cccnc2)NC(=O)[C@H](Cc2c[nH]c3ccc(F)cc23)NC(=O)CNC(=O)[C@H](CCCCN)NC(=O)CCSCc2cccc(c2)CSC[C@@H](C(N)=O)NC(=O)[C@@H]2CCCN2C(=O)[C@H](Cc2ccc(O)cc2)NC1=O [Compound 020] ([Mpa]KG[Trp(5-F)][3Pal]PAYPC-NH2; linker 1-10 via mXylylene) | 21000 to 50000 nM
C[C@@H]1NC(=O)[C@@H]2CCCN2C(=O)[C@H](Cc2ccncc2)NC(=O)[C@H](Cc2c[nH]c3ccc(F)cc23)NC(=O)CNC(=O)[C@H](CCCCN)NC(=O)CCSCc2cccc(c2)CSC[C@@H](C(N)=O)NC(=O)[C@@H]2CCCN2C(=O)[C@H](Cc2ccc(O)cc2)NC1=O [Compound 021] ([Mpa]KG[Trp(5-F)][4Pal]PAYPC-NH2; linker 1-10 via mXylylene) | 100 to 1000 nM
C[C@@H]1NC(=O)[C@@H]2CCCN2C(=O)[C@](C)(Cc2c[nH]c3ccccc23)NC(=O)[C@H](Cc2c[nH]c3ccc(F)cc23)NC(=O)CNC(=O)[C@H](CCCCN)NC(=O)CCSCc2cccc(c2)CSC[C@@H](C(N)=O)NC(=O)[C@@H]2CCCN2C(=O)[C@H](Cc2ccc(O)cc2)NC1=O [Compound 023] ([Mpa]KG[Trp(5-F)][αMeW]PAYPC-NH2; linker 1-10 via mXylylene) | 1000 to 12100 nM
C[C@@H]1NC(=O)[C@@H]2CCCN2C(=O)[C@H](Cc2c[nH]c3ccc(F)cc23)NC(=O)[C@H](Cc2c[nH]c3ccc(F)cc23)NC(=O)[C@@H](C)NC(=O)C2(CCCC2)NC(=O)CCSCc2cccc(c2)CSCCNC(=O)[C@@H]2CCCN2C(=O)[C@H](Cc2ccc(O)cc2)NC1=O [Compound 030] (cyclo(AYP[X1][Ac5c][dA][Trp(5-F)][Trp(5-F)]P)) | 100 to 1000 nM
C[C@@H]1NC(=O)[C@@H]2CCCN2C(=O)[C@H](Cc2c[nH]c3ccc(F)cc23)NC(=O)[C@H](Cc2c[nH]c3ccc(F)cc23)NC(=O)[C@@H](C)NC(=O)C2(CCOCC2)NC(=O)CCSCc2cccc(c2)CSCCNC(=O)[C@@H]2CCCN2C(=O)[C@H](Cc2ccc(O)cc2)NC1=O [Compound 031] (cyclo(AYP[X1][Thp][dA][Trp(5-F)][Trp(5-F)]P)) | 100 to 1000 nM
C[C@@H]1NC(=O)[C@@H]2CCCN2C(=O)[C@H](Cc2c[nH]c3ccc(F)cc23)NC(=O)[C@H](Cc2c[nH]c3ccc(F)cc23)NC(=O)CNC(=O)[C@H](CCCCN)NC(=O)CCSCc2cccc(c2)CSC[C@@H](C(N)=O)NC(=O)[C@@H]2CCCN2C(=O)[C@@H]2CCCN2C1=O [Compound 032] ([Mpa]KG[Trp(5-F)][Trp(5-F)]PAPPC-NH2; linker 1-10 via mXylylene) | 100 to 1000 nM
NCCCC[C@@H]1NC(=O)CCSCc2cccc(c2)CSC[C@@H](C(N)=O)NC(=O)[C@@H]2CCCN2C(=O)[C@@H]2CCCN2C(=O)[C@@H]2CCCN2C(=O)[C@@H]2CCCN2C(=O)[C@H](Cc2c[nH]c3ccc(F)cc23)CC(=O)[C@H](Cc2c[nH]c3ccc(F)cc23)NC(=O)CNC1=O [Compound 033] | 1000 to 12100 nM
C[C@@H]1NC(=O)[C@@H]2CCCCN2C(=O)[C@H](Cc2c[nH]c3ccc(F)cc23)NC(=O)[C@H](Cc2c[nH]c3ccc(F)cc23)NC(=O)[C@@H](C)NC(=O)[C@H](CCCCN)NC(=O)CCSCc2cccc(c2)CSC[C@@H](C(N)=O)NC(=O)[C@@H]2CCCN2C(=O)[C@H](Cc2ccc(O)cc2)NC1=O [Compound 035] ([Mpa]K[dA][Trp(5-F)][Trp(5-F)][Pip]AYPC-NH2; linker 1-10 via mXylylene) | 100 to 1000 nM
C[C@@H]1NC(=O)[C@@H]2C[C@@H](F)CN2C(=O)[C@H](Cc2c[nH]c3ccc(F)cc23)NC(=O)[C@H](Cc2c[nH]c3ccc(F)cc23)NC(=O)[C@@H](C)NC(=O)[C@H](CCCCN)NC(=O)CCSCc2cccc(c2)CSC[C@@H](C(N)=O)NC(=O)[C@@H]2CCCN2C(=O)[C@H](Cc2ccc(O)cc2)NC1=O [Compound 037] ([Mpa]K[dA][Trp(5-F)][Trp(5-F)][Pro(trans-4-F)]AYPC-NH2; linker 1-10 via mXylylene) | 100 to 1000 nM
C[C@@H]1NC(=O)[C@@H]2C=CCN2C(=O)[C@H](Cc2c[nH]c3ccc(F)cc23)NC(=O)[C@H](Cc2c[nH]c3ccc(F)cc23)NC(=O)[C@@H](C)NC(=O)[C@H](CCCCN)NC(=O)CCSCc2cccc(c2)CSC[C@@H](C(N)=O)NC(=O)[C@@H]2CCCN2C(=O)[C@H](Cc2ccc(O)cc2)NC1=O [Compound 038] ([Mpa]K[dA][Trp(5-F)][Trp(5-F)][ΔPro]AYPC-NH2; linker 1-10 via mXylylene) | 100 to 1000 nM
C[C@H]1NC(=O)[C@H]2CCCN2C(=O)[C@H](Cc2c[nH]c3ccc(F)cc23)NC(=O)[C@H](Cc2c[nH]c3ccc(F)cc23)NC(=O)CNC(=O)[C@H](CCCCN)NC(=O)CCSCc2cccc(c2)CSCCNC(=O)C2CCCN2C(=O)[C@H](Cc2ccc(O)cc2)NC1=O (stereo partly shown) [Compound 040] (cyclo(G[Trp(5-F)][Trp(5-F)][dP][dA]Y[ξP][X1]K)) | 1 to 100 nM
C[C@@H]1NC(=O)[C@@H]2CCCN2C(=O)[C@H](Cc2c[nH]c3ccc(F)cc23)NC(=O)[C@H](Cc2c[nH]c3ccc(F)cc23)NC(=O)[C@@H](C)NC(=O)[C@@H]2CCCN2C(=O)CCSCc2cccc(c2)CSCCNC(=O)[C@@H]2CCCN2C(=O)[C@H](Cc2ccccc2)N(C)C1=O [Compound 051] (cyclo(A[NMeF]P[X1]P[dA][Trp(5-F)][Trp(5-F)]P)) | 1 to 100 nM
C[C@@H]1NC(=O)[C@@H]2CCCN2C(=O)[C@H](Cc2c[nH]c3ccc(F)cc23)NC(=O)[C@H](Cc2c[nH]c3ccc(F)cc23)NC(=O)[C@@H](C)NC(=O)[C@@H]2CCCN2C(=O)CCSCc2cccc(c2)CSCCNC(=O)[C@@H]2CCCN2C(=O)[C@H](Cc2ccc(O)cc2)N(C)C1=O [Compound 052] (cyclo(A[NMeY]P[X1]P[dA][Trp(5-F)][Trp(5-F)]P)) | 100 to 1000 nM
